Data set [1] relates to organoids in the HM conditions. The data set is described as follows: in vitro. The settings on record: human, 6 days. As for the experimental part:
(§1) The 2D differentiated mature hepatocytes (2D MH) and organoids (HM) in the HM conditions were seeded in a 24-well plate. […] Three days after seeding, the drug was added daily for 6 days, and toxicity was evaluated by calculating the number of cells using Countess II FL (Life Technology). Then, the organoids were washed with PBS, and fluorescence images were taken with a confocal microscope. Relative intensity was measured using ZEN program (Zeiss) in the same region.
(§2) Next, the effects of trovafloxacin (Sigma; PZ0015) and levofloxacin (Sigma; 28,266), which are structurally related antibiotics, on the 2D MH and the organoids in the HM conditions were compared.

Data set [2] relates to steatosis-induced liver organoids. In words: Hepatic steatosis model: lipid droplets by bright field microscope and Nile red staining. To be noted: added to FA (oleate and palmitate), compared with FA alone. It counts as cell-based, human. As for the experimental part:
The organoids in the HM conditions were seeded on a 24-well plate in order to be induced into liver organoids with steatosis. Three days after seeding, 0.5 mM oleate (Sigma; 07501) combined with 12% fatty acid-free BSA (Sigma; A8806) and 0.25 mM palmitate (Sigma; P9767) were added for 3 days, and images of accumulated lipid droplets were observed under a microscope. For Nile red staining, the samples were washed with PBS and fixed with 4% PFA at 4° C. overnight. The organoids were washed with PBS and treated with 10 μg/ml Nile red solution (Thermo Fisher; N1142) at room temperature for 5 minutes. Fluorescence images were taken with a confocal microscope.
(§3) Meanwhile, in order to confirm the effect on the induction of hepatic steatosis, the organoids in the HM conditions were treated with BSA, FA, FA+etomoxir, FA+L-carnitine, and FA+metformin, respectively, and the results were compared.

Data set [3] has the same test system. In words: Hepatic steatosis model: mitochondrial respiration measured by OCR. The settings on record: added to FA. Format: cell-based, human. As for the experimental part: (§4) Oxygen consumption rate (OCR) was measured for real-time monitoring of mitochondrial toxicity. Two days before the measurement, the organoids were seeded on XFe 96-well plate (Agilent; 102416-100). The probe cartridge was adjusted overnight in a non-C02 incubator at 37° C. On the assay day, the culture medium was removed and washed with warm assay medium (Agilent Seahorse XF base medium (102353-100) supplemented with 1 mM glutamine, 1 mM pyruvate and 17.5 mM glucose for OCR measurement), and the assay medium was added. The culture dish was placed in a non-CO2 incubator at 37° C. for 1 hour, and OCR was measured using Seahorse XFe96 Flux Analyzer according to the manufacturer's instructions.
(§5) For OCR measurement, ATP synthesis inhibitors (1.5 μM oligomycin and ETC complex V inhibitor), uncoupler (1 μM FCCP), and complex I inhibitor (0.5 μM Rotenone) plus complex III inhibitor (0.5 μM antimycin A) were sequentially added at designated time points. The measured value was normalized to the number of surviving cells measured by Cell Counting Kit-8 (Dogindo; CK04-01).
as §3

For data set [4] the test system is unchanged. In words: Hepatic steatosis model: triglyceride concentration. It counts as cell-based, human. To be noted: added to FA, compared with BSA control or FA alone. As for the experimental part:
For the analysis of triglyceride concentration, the steatosis-induced organoids were analyzed by using triglyceride assay kit (Abcam; ab65336) according to the manufacturer's instructions. The organoids were homogenized for 5 minutes using 1 mL of a 5% NP-40 solution under the condition of heated to 80 to 100° C. The pellets were diluted 10-fold with dilution water before starting the analysis. Absorbance was measured at 570 nm by using SpectraMax microplate reader.
as §3

The conditions of data set [5]: patients; cited from earlier work.
The conditions of data set [6]: read-out: Cmax concentration; cited from earlier work.
Another data set concerns 2D MH. In words: Drug toxicity by number of cells after 6 days of treatment, 2D differentiated mature hepatocytes. To be noted: 0.8 μM and 4 μM. Format: cell-based, human. As for the experimental part:
as §1, §2

In data set [7] the test system is organoids in the HM conditions. In words: Oxygen consumption rate (OCR) for mitochondrial toxicity in liver organoids. It counts as cell-based, human. The settings on record: 0.8 μM and 4 μM, 6 days. As for the experimental part: as §4, §5
Data set [8] has as its system organoids in the HM conditions. The data set is described as follows: APAP toxic damage, regeneration and inflammatory response of liver organoids. Format: cell-based, human. As for the experimental part: Time-lapsed images were taken at 37° C. under 5% CO2 at 30-minute intervals with an Olympus IX83 inverted microscope. The diameter of the organoid was measured using ImageJ program at the designated time point from the time lapsed image. Fluorescence images were taken with a confocal microscope. In addition, the organoids were cultured for 30 minutes with 7.5 μM dihydroethidium (Sigma; D7008) for detecting ROS, 30 μM monochlorobimane (Sigma; 69899) for measuring GSH content, and 2.5 μM Syto11 (Thermo Fisher; S7573) for staining nuclei.
In addition, the expressions of high-mobility group protein 1 (HMGB1), which is a protein involved in the detection of ROS and the inflammatory response of cells, ki67, which is a marker indicating cell proliferation, E-cadherin, which is an epithelial marker, LC3B, which is an autophagy marker, and Tom20, a mitochondrial marker, were analyzed at protein level according to the method described in Experimental Example 1.

A further data set concerns the target CYP3A4 (Homo sapiens, UniProt P08684). As for the experimental part:
Aliquots (100 μL) were diluted with 2-fold volume of acetonitrile containing carbamazepine as an internal standard for sample analysis and transferred to a 96-well plate.

Data set [9] has as its system steatosis-induced liver organoids. In words: Drug screening of autophagy library for suppressing lipid accumulation (Nile red). The settings on record: 10 μM during steatosis induction; top four of 151 chemical substances. It counts as cell-based, human. As for the experimental part: For drug screening, the organoids were treated with 151 chemical substances at a concentration of 10 μM in the autophagy library (Selleckchem; At L2600) during the hepatic steatosis induction period. Then, the organoids were stained with Nile red and fluorescence images were analyzed with a confocal microscope.

The nature of a further data set: in vitro. The settings on record: human. As for the experimental part: as §1, §2

SMILES strings stand for the structures.

Sequence of CYP3A4 (P08684 whole entry): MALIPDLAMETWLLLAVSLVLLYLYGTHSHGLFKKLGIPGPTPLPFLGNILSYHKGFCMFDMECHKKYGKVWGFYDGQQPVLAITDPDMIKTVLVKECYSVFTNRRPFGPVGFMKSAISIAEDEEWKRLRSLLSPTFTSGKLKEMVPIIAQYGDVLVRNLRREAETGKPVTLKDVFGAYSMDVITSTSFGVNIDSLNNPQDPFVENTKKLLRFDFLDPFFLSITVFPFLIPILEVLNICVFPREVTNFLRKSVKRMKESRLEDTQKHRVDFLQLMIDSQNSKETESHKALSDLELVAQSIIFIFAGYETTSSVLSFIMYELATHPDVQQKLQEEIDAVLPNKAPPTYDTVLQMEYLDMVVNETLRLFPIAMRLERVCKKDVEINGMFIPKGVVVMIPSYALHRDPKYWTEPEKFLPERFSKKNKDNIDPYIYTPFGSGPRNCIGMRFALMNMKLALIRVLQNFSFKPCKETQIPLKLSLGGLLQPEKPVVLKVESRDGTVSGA

As for `Cc1c(C)c2c(c(C)c1O)CCC(C)(COc1ccc(CC3SC(=O)NC3=O)cc1)O2` (stereo not drawn) [troglitazone, Troglitazone], the “toxic response, 2D MH versus organoids” value in [1] is “different in 2D and 3D models”.
On to `CCOC(=O)[C@@]1(CCCCCCOc2ccc(Cl)cc2)CO1` [etomoxir], for which, in data set [2], the “accumulation of intracellular lipid droplets / lipid accumulation” value is listed as “significant accumulation”. The “mitochondrial respiration measured by OCR” value in data set [3] is “significantly reduced”. In data set [4], the intracellular triglyceride concentration result is “significantly increased”.
In the case of `N[C@@H]1[C@H]2CN(c3nc4c(cc3F)c(=O)c(C(=O)O)cn4-c3ccc(F)cc3F)C[C@@H]12` [trovafloxacin], the reported side effect result in data set [5] is listed as “patient death due to liver failure”. In addition, in data set [6], the Cmax was 4.1 µM. Besides, the number of cells entry in the data set on 2D MH was “little change”. The “OCR (mitochondrial respiration)” value in data set [7] is given as “reduction of OCR”.
For `CC(=O)Nc1ccc(O)cc1` [APAP, acetaminophen], the “reactive oxygen species (ROS)” value in data set [8] (20 mM APAP, dihydroethidium staining) is listed as “increased”. In data set [8] (20 mM APAP, immunofluorescence), the “expression amounts of Ki67, E-cadherin, and Tom20” value is “reduced”. Moreover, the “expression of HMGB1” value in data set [8] (20 mM APAP, immunofluorescence, migration to the cytoplasm) is “reduced”. Besides, the organoid morphology entry in data set [8] (20 mM daily for 7 days) is listed as “severe morphological damage”. Also, in data set [8] (20 mM for 60 hours from day 2, new HM medium on day 4.5), the “organoid morphology and size after recovery” value is recorded as “recovered on day 7”. In [8] (APAP for 60 hours versus APAP for 5 days), the “expression of LC3B” value is “more strongly induced”. Besides, in data set [8] (APAP for 60 hours, then new HM medium on day 4.5, qRT-PCR), the “expression of IL-10” value is on record as “significantly increased”. The “expressions of proinflammatory mediators (IL-1β, IL-6, IL-8) and pathological mediators (TNF-α and FasL)” value in data set [8] (APAP for 7 days, qRT-PCR) is reported as “strongly induced”.
On to `C[C@]12CC[C@H]3[C@@H](CCC4=CC(=O)CC[C@@]43C)[C@@H]1CC[C@@H]2O` [testosterone], for which, on CYP3A4, the “metabolism to 6β-hydroxytestosterone” value is listed as “directly hydroxylated”.
Consider `C[N+](C)(C)C[C@H](O)CC(=O)[O-]` [L-carnitine], for which the “accumulation of intracellular lipid droplets / lipid accumulation” value in [2] is listed as “significantly reduced”. In addition, the “mitochondrial respiration measured by OCR” value in data set [3] is reported as “recovered”.
`CC(=O)Nc1ccc(C(=O)Nc2ccccc2N)cc1` [Tacedinalin, Tacedinaline]: in data set [9], the “phenotype of hepatic steatosis and lipid accumulation in drug screening” value (“phenotype” below) is on record as “capable of restoring lipid accumulation”.
Regarding `C[C@H]1COc2c(N3CCN(C)CC3)c(F)cc3c(=O)c(C(=O)O)cn1c23` [levofloxacin], the cytotoxicity at 6 days, 100 μM in “in vitro” is 36%. Further, in data set [6], the Cmax was 23.8 µM.
As for `CN(C)C(=N)N=C(N)N` [metformin], the “accumulation of intracellular lipid droplets / lipid accumulation” value in data set [2] is on record as “slightly reduced”. For the same compound, the intracellular triglyceride concentration result in data set [4] is on record as “not reduced”.
Regarding `O=C(CCCCCN1C(=O)c2cccc3cccc(c23)C1=O)NO` [Scriptaid], the “phenotype” value in data set [9] was “capable of restoring lipid accumulation”.
For the compound `CO[C@H]1C[C@@H]2CC[C@@H](C)[C@@](O)(O2)C(=O)C(=O)N2CCCC[C@H]2C(=O)O[C@H]([C@H](C)C[C@@H]2CC[C@@H](OCCO)[C@H](OC)C2)CC(=O)[C@H](C)/C=C(\C)[C@@H](O)[C@@H](OC)C(=O)[C@H](C)C[C@H](C)/C=C/C=C/C=C/1C` [Everolimus], in data set [9], the “phenotype” value is given as “capable of restoring lipid accumulation”.
Same read-out and setting: the same measure for `COc1ccc(-c2ccc3c(N4CCOCC4)nc(N4C[C@@H](C)O[C@@H](C)C4)nc3n2)cc1CO` [KU-0063794]: “capable of restoring lipid accumulation”.

Source of the values: patent US20220308045A1, “EXPANDABLE LIVER ORGANOIDS, MEDIA COMPOSITION FOR DIFFERENTIATION THEREOF, AND METHOD FOR PRODUCING LIVER ORGANOIDS USING THE SAME” (KOREA RESEARCH INSTITUTE OF BIOSCIENCE AND BIOTECHNOLOGY, priority 2019, published 2022).
